Experimental data as given in US20220264883A1, “IMIDAZOTHIAZOLE COMPOUNDS AND METHODS FOR TREATING PLANT NEMATODE INFECTIONS” (The Governing Council of the University of Toronto, priority 2019, published 2022).
Read-outs that look alike come from different tables or passages of the source.

Columns and labels:
M. chitwoodi = test: Root-knot nematode M. chitwoodi mobility (Table 3); type: in vivo, Meloidogyne chitwoodi; settings: 45 μM, 2 days of chronic exposure
Method: M. incognita (Kofoid & White) Chitwood Race 1 (originally isolated in Maryland) was used for all experiments, and was maintained on pepper (Capsicum annuum L.) cv. PA-136 in a greenhouse as previously described^64. Infective J2 juveniles were collected as described in ref.65. The microwell dose-response experiments were carried out similarly to previously described protocols^64, 66. In brief, 100 J2s, in 10 μL of deionized water, were added to the wells of 96-well polystyrene plates, after which 190 μL of deionized water containing dissolved chemical, or DMSO alone, was added to each well. The chemicals were tested at 45 μM, and the final concentration of DMSO in each well was 0.5% (v/v). The wells were covered with a plastic adhesive strip, and the lids of the plates were sealed with parafilm. The plates were incubated at 25° C. The mobile fraction of worms was quantified by counting the number of mobile and immobile worms after 2 days of incubation, and then dividing the number of mobile worms by the total number of worms in the well. Three technical replicates were performed for each treatment, and an average value for the mobile fraction of worms was calculated across the three replicates. The percent effectiveness at inhibiting nematode movement was calculated by dividing the average value for the chemical treatment by the average value for the DMSO control, then subtracting this value from 1, and then multiplying by 100.
M. chitwoodi race 1 (the strain commonly found in the pacific northwest of the United States) was used for all experiments, and was maintained on tomato plants (Solanum lycopersicum ‘Rutgers’) as previously described^73. The M. chitwoodi in vitro assays were performed identically to the M. incognita in vitro assays (see above).
The ability of exemplary compounds of the application to kill C. elegans at 100 μM (except for compound If which was tested at 50 μM) and to affect the mobility of M. chitwoodi at 45 μM was tested as described above for M. incognita infective juveniles. Percent mobility was measured after 2 days of chronic exposure to test compounds (Table 3).

[1] = Saccharomyces cerevisiae (budding yeast) dose-response experiments; type: cell-based; settings: Saccharomyces cerevisiae, yeast strain RY0568 culture; non-target system; growth over 18 hours; read-out: S. cerevisiae LC50
Method: A saturated culture of the yeast strain RY0568 was diluted to an OD600 of 0.015 with fresh YPD media (see ref. 62). 100 μL of this dilute yeast suspension was added to each well of a 96-well plate. The yeast were grown for 4 hours at 30° C. with shaking at 140 rpm. Using a multichannel pipette, 1 μL of chemical solution was added to each well to achieve the desired final concentrations. The final DMSO concentration was 1% (v/v). The microwell plate was then loaded into a TECAN plate reader set at 30° C. The OD600 of each well was measured over an 18-hour period, and the plate was shaken intermittently throughout the run. The areas under the resultant growth curves were calculated using R scripts adapted from those found in the MESS package. The area under the curve at each concentration of a dose-response assay was divided by the area under the curve for the corresponding DMSO control, resulting in a “relative fitness” value for each concentration tested. Three biological replicates were performed for each dose-response experiment, and the relative fitness values were averaged across the three replicates.

C. elegans = C. elegans dose-response experiments (wild type; embryo to adult and dauer stages); type: in vivo; settings: for LC50: Caenorhabditis elegans
Method: Forty microliters of an HB101 bacterial suspension in liquid NGM (see above) was added to each well of a 96-well flat-bottom culture plate, after which approximately 25 synchronized L1 worms, in 10 μl of M9 buffer (see ref. 59 for the recipe), were added to each well. The synchronized L1 worms were obtained from an embryo preparation performed the previous day (see ref. 59 for the protocol). For the L1 assays, 0.5 μl of chemical solution (or DMSO alone) was immediately added to the wells using a multichannel pipette, the final DMSO concentration is 1% (v/v). The worms were incubated for 3 days at 20° C. and the number of viable animals was counted. […] Although the counts were performed after 3 days of incubation in the chemical, it was noted that the L1s were dead within 24 hours of the addition of the chemicals. For the L2/L3 assays, the worms were incubated in the absence of chemical for 1 day at 20° C. until they reached the L2/L3 stage, at which point chemical was added as described above. The worms were then allowed to incubate for 2 days at 20° C. and the number of viable animals was counted as described for the L1 assay. For the L4 assays, the worms were incubated for 2 days at 20° C. before the addition of chemicals. The L4-stage worms were then incubated in chemical for an additional day before quantifying the number of viable animals. The adult assays were performed the same way as the L4 assays, however HT115 E. coli carrying the empty dsRNA expressing vector L4440 was used in place of HB101 and the worms were cultured at 25° C. as opposed to 20° C. for the entirety of the experiment. The HT115 suspension was made by concentrating a bacterial culture, with an OD600 of ˜ 0.8, five-fold with liquid NGM containing 1 mM IPTG and 100 μg/ml carbenicillin. The HT115 cells were induced with 1 mM IPTG for one hour before concentrating with NGM.
For the dose-response experiments with embryos, eggs obtained from an embryo preparation were immediately aliquoted into 96-well plate wells. Approximately 25 embryos in 50 μl of M9 buffer were added to each well, and 0.5 μl volumes of the chemicals were added via multichannel, in the same way as for the L1 dose-response assays described above. The plates were incubated at 20° C. for 1 day, at which point the number of hatched eggs was counted.
For the dauer dose-response assays, the CB1370 strain carrying the temperature sensitive daf-2(e1370) allele was used. When grown at the non-permissive temperature of 25° C. these mutants will enter dauer constitutively. The assay was performed similarly to the […] described above, however the L1 worms were allowed to grow for 2 days at 25° C. until they became dauer larvae. At this point chemical was added and the dauers were incubated for 2 days at 25° C. before quantitation of viability. After 2 days, all of the dauer larvae, including the DMSO controls, were relatively motionless and appeared as rigid rods. To activate the worms, 1 μl of 1 N sodium hydroxide was added to each well and the plates were agitated vigorously before counting. This was done one well at a time.
At least three biological replicates were performed for each dose-response assay. For each biological replicate, two technical replicates were performed and the numbers of viable animals for each technical replicate were combined (i.e. ˜50 worms assayed per concentration). The number of viable worms at each concentration was divided by the corresponding DMSO control value to give the “relative viability” for each concentration. The “relative viability” values were then averaged across the biological replicates. LC50 values were calculated using Graphpad Prism. The concentration values were log-transformed and a four-parameter logistic curve was fitted to the dose-response data by non-linear regression, from which the LC50 values were extracted.

[2] = 72 h, L1 worms, 3 days at 20° C., read-out: C. elegans LC50
[3] = wild-type, resistance none, read-out: LC50 in strain N2

| Structure (SMILES) | RKN mobility (M. chitwoodi) | CC50 at 18 h [1] | LC50 (C. elegans; [2]) | LC50 (C. elegans; [3]) | killing of each developmental stage of C. elegans from embryo to adult (C. elegans; FIG. 1B) | killing of the non-reproductive dauer stage of C. elegans (C. elegans; daf-2(e1370) dauers, FIG. 1B) |
| --- | --- | --- | --- | --- | --- | --- |
| Clc1ccc(-c2cn3ccsc3n2)cc1 [Ia] | 0% | > 100 µM | 6.9 µM | 6.9 µM | micromolar potency | can also kill the non-reproductive dauer stage |
| Fc1ccc(-c2cn3ccsc3n2)cc1 [Ib] | 43.2% | > 100 µM | 29.7 µM | 29.7 µM |  |  |
| Cc1csc2nc(-c3ccccc3)cn12 [Compound Ie] | 50.8% | > 100 µM | > 100 µM |  |  |  |
